Laboratory results as given in patent US9000162B2, “5,8-difluoro-4-(2-(4-(heteroaryloxy)-phenyl)ethylamino)quinazolines and their use as agrochemicals” (Dow AgroSciences LLC, priority 2008, dated 2015).

What was measured:
Assay type in all cases: in vivo
[1] = system: Pseudoperonospora cubensis (PSPECU); assay: Cucumber downy mildew foliar protectant test; conditions: 200 ppm foliar, inoculated one day after treatment, read-out: Activity against fungal diseases PSPECU
Procedure: The plants were inoculated with the fungus one day after treatment. ***=80-100% control; **=50-79% control; *=0-49% control. It will be understood by those in the art that the efficacy of the compounds against the foregoing fungi establishes the general utility of the compounds as fungicides. The activity of the compounds as effective fungicides was determined by applying the compounds to plants and observing control of fungal disease. […] All plants were inoculated with spores of the fungus the day after treatment, then incubated in an environment conducive to disease development. Disease severity was evaluated 4 to 25 days later, depending on the speed of disease development. The following experiments were performed in the laboratory to determine the fungicidal efficacy of the compounds of the invention. Cucumber Downy Mildew (Causal Agent Pseudoperonospora cubensis; Bayer Code […]): Cucumber plants (variety “Bush Champion' or 'Bush Pickle Hybrid') were grown from seed in a soil-less peat-based potting mixture (Metromix) until the first true leaf was 20-80% expanded. Each pot contained 1 seedling. These plants were sprayed until wet with the formulated test compound. On the following day, the leaves were inoculated with an aqueous suspension of downy mildew sporangia and the plants were kept in high humidity for one day to permit sporangia to germinate and infect the leaf. The plants were then incubated in a growth chamber until disease developed on untreated control plants. Table 1 presents the activity of typical compounds of the present invention when evaluated in these experiments. The effectiveness of the test compounds at controlling disease when sprayed on leaves was determined by assessing the severity of disease on treated plants, then converting the severity to percent control based on the level of disease on untreated, inoculated plants.

[2] = system: Puccinia recondita tritici (PUCCRT); assay: Leaf rust of wheat foliar protectant test; conditions: 200 ppm foliar, inoculated one day after treatment, read-out: Activity against fungal diseases PUCCRT
Procedure: (§1) The plants were inoculated with the fungus one day after treatment. ***=80-100% control; **=50-79% control; *=0-49% control. It will be understood by those in the art that the efficacy of the compounds against the foregoing fungi establishes the general utility of the compounds as fungicides. The activity of the compounds as effective fungicides was determined by applying the compounds to plants and observing control of fungal disease. […] All plants were inoculated with spores of the fungus the day after treatment, then incubated in an environment conducive to disease development. Disease severity was evaluated 4 to 25 days later, depending on the speed of disease development. The following experiments were performed in the laboratory to determine the fungicidal efficacy of the compounds of the invention. […] Each pot contained 3-8 seedlings. These plants were sprayed until wet with the formulated test compounds. On the following day, the leaves were inoculated with an aqueous spore suspension of Puccinia recondita tritici and the plants were kept in high humidity overnight to permit spores to germinate and infect the leaf. The plants were then transferred to a greenhouse until disease developed on untreated control plants. Table 1 presents the activity of typical compounds of the present invention when evaluated in these experiments. The effectiveness of the test compounds at controlling disease when sprayed on leaves was determined by assessing the severity of disease on treated plants, then converting the severity to percent control based on the level of disease on untreated, inoculated plants.

[3] = system: Magnaporthe grisea = Pyricularia oryzae (PYRIOR); assay: whole plant or invertebrate; conditions: foliar, read-out: Activity against fungal diseases PYRIOR
[4] = system: Septoria tritici (SEPTTR); assay: Septoria blotch of wheat foliar protectant test; conditions: Zymoseptoria tritici, read-out: Activity against fungal diseases SEPTTR; for pest or weed control at 25 ppm: foliar, Tested at 25 ppm (footnote b); for pest or weed control at 200 ppm: 200 ppm foliar, inoculated one day after treatment
Procedure: as §1, with “3-10” for “3-8”, “compound.” for “compounds.”, “Septoria” for “Puccinia recondita”, “(one day in a dark dew chamber followed by three days in a lighted dew chamber)” for “overnight”

Compound	pest or weed control at 200 ppm [1] [%]	pest or weed control at 200 ppm [2] [%]	pest or weed control at 200 ppm [3] [%]	pest or weed control at 25 ppm [4] [%]	pest or weed control at 200 ppm [4] [%]	pest or weed control at 3 ppm [3] [%]
Fc1ccc(F)c2c(NCCc3ccc(Oc4ccnc(C(F)(F)F)n4)cc3)ncnc12 [Compound 114]	80 to 100	80 to 100	80 to 100	50 to 79	–	–
Cc1cc(CCNc2ncnc3c(F)ccc(F)c23)ccc1Oc1cc(C(C)(F)F)ccn1 [Compound 64]	80 to 100	80 to 100	80 to 100	–	80 to 100	–
COc1cc(C)c(CCNc2ncnc3c(F)ccc(F)c23)cc1C [Compound 17]	80 to 100	80 to 100	50 to 79	–	0 to 49	–
Nc1c(F)c(F)nc(Oc2ccc(CCNc3ncnc4c(F)ccc(F)c34)cc2)c1F [Compound 97]	80 to 100	80 to 100	80 to 100	–	50 to 79	–
COc1cc(CCNc2ncnc3c(F)ccc(F)c23)ccc1Oc1cc(C(C)(F)F)ccn1 [Compound 16]	80 to 100	80 to 100	80 to 100	–	80 to 100	–
N#Cc1c(Cl)cncc1Oc1ccc(CCNc2ncnc3c(F)ccc(F)c23)cc1 [Compound 129]	80 to 100	80 to 100	80 to 100	–	50 to 79	–
Cc1cc(CCNc2ncnc3c(F)ccc(F)c23)ccc1Oc1c(Cl)cnc(C(F)(F)F)c1Cl [Compound 79]	50 to 79	80 to 100	80 to 100	–	80 to 100	–
COc1cc(CCNc2ncnc3c(F)ccc(F)c23)ccc1Oc1cc(C(F)(F)F)ncn1 [Compound 112]	80 to 100	80 to 100	80 to 100	80 to 100	–	–
COc1cc(CCNc2ncnc3c(F)ccc(F)c23)ccc1Oc1nc(F)c(F)c(N)c1F [Compound 98]	80 to 100	80 to 100	80 to 100	–	0 to 49	–
Cc1c(O)ccc(CCNc2ncnc3c(F)ccc(F)c23)c1C [Compound 23]	80 to 100	50 to 79	50 to 79	–	0 to 49	–
COc1ccc(CCNc2ncnc3c(F)ccc(F)c23)cc1F [Compound 46]	80 to 100	80 to 100	0 to 49	–	0 to 49	–
[O-][n+]1ccc(C(F)(F)F)cc1Oc1ccc(CCNc2ncnc3c(F)ccc(F)c23)cc1 [Compound 54]	80 to 100	80 to 100	80 to 100	–	80 to 100	–
Fc1cc(Oc2ncc(C(F)(F)F)cc2F)ccc1CCNc1ncnc2c(F)ccc(F)c12 [Compound 122]	80 to 100	80 to 100	50 to 79	80 to 100	–	–
Cc1cc(CCNc2ncnc3c(F)ccc(F)c23)ccc1Oc1cc(C(F)(F)F)cc[n+]1[O-] [Compound 61]	80 to 100	80 to 100	50 to 79	–	80 to 100	–
Fc1cc(CCNc2ncnc3c(F)cc(F)c(F)c23)ccc1Oc1cc(C(F)(F)F)ccn1 [Compound 67]	80 to 100	80 to 100	80 to 100	–	80 to 100	–
Cc1cc(Oc2cc(C(F)(F)F)ncn2)ccc1CCNc1ncnc2c(F)ccc(F)c12 [Compound 118]	80 to 100	80 to 100	80 to 100	80 to 100	–	–
COc1cc(CCNc2ncnc3c(F)ccc(F)c23)ccc1Oc1ccc(C(F)(F)F)cn1 [Compound 52]	80 to 100	80 to 100	80 to 100	–	80 to 100	–
Fc1ccc(F)c2c(NCCc3ccc(Oc4ccncc4C(F)(F)F)cc3)ncnc12 [Compound 83]	80 to 100	80 to 100	80 to 100	–	80 to 100	–
COc1cc(CCNc2ncnc3c(F)ccc(F)c23)ccc1Oc1ccnc(Cl)c1 [Compound 108]	0 to 49	80 to 100	0 to 49	–	80 to 100	–
Cc1cc(C(F)(F)F)cc(Oc2ccc(CCNc3ncnc4c(F)ccc(F)c34)cc2)n1 [Compound 7]	80 to 100	80 to 100	80 to 100	–	80 to 100	–
COc1cc(CCNc2ncnc3c(F)ccc(F)c23)ccc1Oc1c(Cl)cnc(C(F)(F)F)c1Cl [Compound 69]	80 to 100	80 to 100	80 to 100	–	80 to 100	–
COc1cc(CCNc2ncnc3c(F)cc(F)c(F)c23)ccc1Oc1cc(C(F)(F)F)ccn1 [Compound 34]	80 to 100	80 to 100	80 to 100	–	80 to 100	–
COc1cc(CCNc2ncnc3c(F)ccc(F)c23)ccc1Oc1c(Cl)cnc(C(Cl)(Cl)Cl)c1Cl [Compound 89]	50 to 79	80 to 100	50 to 79	–	50 to 79	–
Fc1cnc(C(F)(F)F)c(F)c1Oc1ccc(CCNc2ncnc3c(F)ccc(F)c23)cc1 [Compound 48]	80 to 100	80 to 100	80 to 100	–	80 to 100	–
Cc1cc(CCNc2ncnc3c(F)ccc(F)c23)ccc1Oc1ccnc(C(F)(F)F)c1 [Compound 82]	80 to 100	80 to 100	80 to 100	–	80 to 100	–
Oc1ccc(CCNc2ncnc3c(F)ccc(F)c23)cc1Cl [Compound 87]	50 to 79	0 to 49	0 to 49	–	0 to 49	–
Fc1ccc(F)c2c(NCCc3ccc(Oc4cc(C(F)(F)F)ccn4)c(Br)c3)ncnc12 [Compound 39]	80 to 100	80 to 100	80 to 100	80 to 100	–	–
Cc1cc(CCNc2ncnc3c(F)ccc(F)c23)ccc1Oc1ccncc1C(F)(F)F [Compound 37]	80 to 100	80 to 100	–	50 to 79	–	80 to 100
